According to the kinase profiling compilation of Christmann-Franck et al. (2016):

Key:
Test in all cases: KINOMEscan competition binding
Conditions in all cases: compound 10.0 µM
ANKK1 (human) = ANKK1 (human) (UniProt Q8NFD2)
TEK (human) = TEK (human) (UniProt Q02763)
DYRK1B (human) = DYRK1B (human) (UniProt Q9Y463)
YES1 (human) = YES1 (human) (UniProt P07947)
PRKD3 (human) = PRKD3 (human) (UniProt O94806)
NEK7 (human) = NEK7 (human) (UniProt Q8TDX7)
MAPK8 (human) = MAPK8 (human) (UniProt P45983)
BLK (human) = BLK (human) (UniProt P51451)
CDC2L2 (human) = CDC2L2 (human) (UniProt Q9UQ88)
[1] = system: KIT (human), P10721 [V559D/V654A]
EIF2AK1 (human) = EIF2AK1 (human) (UniProt Q9BQI3)
MAP2K2 (human) = MAP2K2 (human) (UniProt P36507)
RPS6KA5 KD2 (human) = RPS6KA5 KD2 (human) (UniProt O75582)
FGFR4 (human) = FGFR4 (human) (UniProt P22455)
HCK (human) = HCK (human) (UniProt P08631)
EPHB6 (human) = EPHB6 (human) (UniProt O15197)
EPHB6 (human), sequence (O15197 whole entry, looked up): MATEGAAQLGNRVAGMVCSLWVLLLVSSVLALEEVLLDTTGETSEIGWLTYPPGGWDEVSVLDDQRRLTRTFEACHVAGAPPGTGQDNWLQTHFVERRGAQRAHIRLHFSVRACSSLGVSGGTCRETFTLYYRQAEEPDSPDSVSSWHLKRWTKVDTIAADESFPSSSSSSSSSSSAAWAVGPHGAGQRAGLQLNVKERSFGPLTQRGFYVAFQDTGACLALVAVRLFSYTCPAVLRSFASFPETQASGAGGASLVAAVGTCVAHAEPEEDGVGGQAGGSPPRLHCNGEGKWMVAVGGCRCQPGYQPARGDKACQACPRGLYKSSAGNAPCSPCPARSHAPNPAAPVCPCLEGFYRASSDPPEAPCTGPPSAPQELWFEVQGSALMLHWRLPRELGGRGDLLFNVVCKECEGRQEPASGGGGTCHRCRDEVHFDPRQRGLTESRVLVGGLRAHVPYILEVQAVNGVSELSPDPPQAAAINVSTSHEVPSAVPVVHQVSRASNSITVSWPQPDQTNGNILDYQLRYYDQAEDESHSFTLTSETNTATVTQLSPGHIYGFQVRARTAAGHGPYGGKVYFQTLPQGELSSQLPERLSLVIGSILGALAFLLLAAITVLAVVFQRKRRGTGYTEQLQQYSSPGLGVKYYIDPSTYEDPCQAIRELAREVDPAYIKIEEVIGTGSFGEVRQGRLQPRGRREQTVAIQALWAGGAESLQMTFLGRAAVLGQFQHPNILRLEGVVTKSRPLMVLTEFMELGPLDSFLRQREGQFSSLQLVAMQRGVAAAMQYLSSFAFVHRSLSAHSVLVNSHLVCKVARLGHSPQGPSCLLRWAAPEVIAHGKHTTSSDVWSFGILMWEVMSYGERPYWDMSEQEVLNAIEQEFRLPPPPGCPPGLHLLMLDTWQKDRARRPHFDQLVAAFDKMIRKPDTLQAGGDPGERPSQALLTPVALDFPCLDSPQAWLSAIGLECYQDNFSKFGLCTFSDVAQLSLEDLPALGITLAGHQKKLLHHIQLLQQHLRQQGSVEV

EPHB4 (human) = EPHB4 (human) (UniProt P54760)
ERBB2 (human) = ERBB2 (human) (UniProt P04626)
CLK4 (human) = CLK4 (human) (UniProt Q9HAZ1)
LRRK2 (human) = LRRK2 (human) (UniProt Q5S007)
AURKC (human) = AURKC (human) (UniProt Q9UQB9)
TESK1 (human) = TESK1 (human) (UniProt Q15569)
ULK2 (human) = ULK2 (human) (UniProt Q8IYT8)
CHEK2 (human) = CHEK2 (human) (UniProt O96017)
MAPK10 (human) = MAPK10 (human) (UniProt P53779)
MAPK11 (human) = MAPK11 (human) (UniProt Q15759)
MAPK11 (human), sequence (Q15759 whole entry, looked up): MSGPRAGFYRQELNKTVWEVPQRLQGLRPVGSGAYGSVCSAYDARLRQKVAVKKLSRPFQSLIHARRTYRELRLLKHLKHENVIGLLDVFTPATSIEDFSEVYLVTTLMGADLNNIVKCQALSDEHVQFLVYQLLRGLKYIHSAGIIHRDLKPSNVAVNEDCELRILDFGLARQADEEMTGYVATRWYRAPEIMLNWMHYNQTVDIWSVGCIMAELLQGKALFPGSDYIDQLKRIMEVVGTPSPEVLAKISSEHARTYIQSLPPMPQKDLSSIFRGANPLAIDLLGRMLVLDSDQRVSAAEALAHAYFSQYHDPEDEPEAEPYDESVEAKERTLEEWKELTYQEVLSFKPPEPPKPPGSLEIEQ

NIM1 (human) = NIM1 (human) (UniProt Q8IY84)
NIM1 (human), sequence (Q8IY84 whole entry, looked up): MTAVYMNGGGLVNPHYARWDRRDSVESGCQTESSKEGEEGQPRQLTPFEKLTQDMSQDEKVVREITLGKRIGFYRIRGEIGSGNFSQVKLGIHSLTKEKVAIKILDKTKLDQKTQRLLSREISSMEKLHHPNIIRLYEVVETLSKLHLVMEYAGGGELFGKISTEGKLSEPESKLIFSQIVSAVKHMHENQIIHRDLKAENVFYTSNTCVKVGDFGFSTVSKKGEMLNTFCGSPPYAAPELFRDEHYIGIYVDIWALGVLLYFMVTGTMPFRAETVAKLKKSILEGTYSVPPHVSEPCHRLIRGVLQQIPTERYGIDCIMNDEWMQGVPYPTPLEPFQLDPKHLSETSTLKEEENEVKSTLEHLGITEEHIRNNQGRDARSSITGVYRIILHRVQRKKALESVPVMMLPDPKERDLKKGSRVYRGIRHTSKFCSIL

NTRK1 (human) = NTRK1 (human) (UniProt P04629)
PIK3C2G (human) = PIK3C2G (human) (UniProt O75747)
PLK2 (human) = PLK2 (human) (UniProt Q9NYY3)
MAP4K2 (human) = MAP4K2 (human) (UniProt Q12851)
STK10 (human) = STK10 (human) (UniProt O94804)
AKT2 (human) = AKT2 (human) (UniProt P31751)
AKT2 (human), sequence (P31751 whole entry, looked up): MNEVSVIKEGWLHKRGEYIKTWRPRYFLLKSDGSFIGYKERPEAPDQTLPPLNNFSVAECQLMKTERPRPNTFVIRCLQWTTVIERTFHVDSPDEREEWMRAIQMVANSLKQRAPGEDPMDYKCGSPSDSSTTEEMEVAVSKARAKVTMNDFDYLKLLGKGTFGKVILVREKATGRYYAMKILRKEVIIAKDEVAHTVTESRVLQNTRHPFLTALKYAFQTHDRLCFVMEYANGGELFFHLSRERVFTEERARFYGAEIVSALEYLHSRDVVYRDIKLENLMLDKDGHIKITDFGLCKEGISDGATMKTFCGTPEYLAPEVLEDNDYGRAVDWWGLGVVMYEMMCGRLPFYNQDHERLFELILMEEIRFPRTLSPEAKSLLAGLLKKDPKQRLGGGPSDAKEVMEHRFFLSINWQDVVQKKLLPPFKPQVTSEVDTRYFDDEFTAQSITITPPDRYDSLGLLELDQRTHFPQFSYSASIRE

NUAK2 (human) = NUAK2 (human) (UniProt Q9H093)
TIE1 (human) = TIE1 (human) (UniProt P35590)
TIE1 (human), sequence (P35590 whole entry, looked up): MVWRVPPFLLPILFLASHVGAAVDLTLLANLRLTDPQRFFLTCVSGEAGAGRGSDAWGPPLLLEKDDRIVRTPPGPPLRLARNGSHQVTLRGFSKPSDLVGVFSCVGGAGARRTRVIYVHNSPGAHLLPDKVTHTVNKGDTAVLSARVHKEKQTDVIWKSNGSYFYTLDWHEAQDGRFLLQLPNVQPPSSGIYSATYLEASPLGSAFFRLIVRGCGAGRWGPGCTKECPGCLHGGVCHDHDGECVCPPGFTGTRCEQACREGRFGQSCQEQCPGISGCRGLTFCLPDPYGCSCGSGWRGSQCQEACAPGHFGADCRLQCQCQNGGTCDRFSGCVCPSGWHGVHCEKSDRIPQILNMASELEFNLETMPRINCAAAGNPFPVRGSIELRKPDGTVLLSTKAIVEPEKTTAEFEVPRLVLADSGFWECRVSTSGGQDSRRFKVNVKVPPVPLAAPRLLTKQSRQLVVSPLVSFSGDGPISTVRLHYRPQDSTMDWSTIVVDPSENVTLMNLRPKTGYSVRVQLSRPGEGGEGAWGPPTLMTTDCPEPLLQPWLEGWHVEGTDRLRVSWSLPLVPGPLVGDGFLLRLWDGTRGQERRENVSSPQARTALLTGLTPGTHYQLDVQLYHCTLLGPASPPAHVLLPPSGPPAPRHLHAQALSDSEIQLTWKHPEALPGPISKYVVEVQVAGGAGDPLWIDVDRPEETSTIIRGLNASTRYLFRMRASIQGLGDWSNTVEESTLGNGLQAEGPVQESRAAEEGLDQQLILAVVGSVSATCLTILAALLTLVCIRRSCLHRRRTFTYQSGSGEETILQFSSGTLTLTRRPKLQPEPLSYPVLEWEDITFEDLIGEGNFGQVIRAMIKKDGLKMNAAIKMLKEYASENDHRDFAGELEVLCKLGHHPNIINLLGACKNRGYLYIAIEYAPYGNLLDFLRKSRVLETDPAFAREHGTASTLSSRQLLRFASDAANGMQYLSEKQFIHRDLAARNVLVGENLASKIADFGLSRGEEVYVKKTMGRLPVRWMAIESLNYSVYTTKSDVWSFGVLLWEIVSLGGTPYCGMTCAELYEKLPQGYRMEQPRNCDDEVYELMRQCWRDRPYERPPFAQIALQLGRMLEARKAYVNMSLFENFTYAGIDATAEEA

[2] = target: JAK3 JH1 catalytic (human) (UniProt P52333)
RIPK4 (human) = RIPK4 (human) (UniProt P57078)
LTK (human) = LTK (human) (UniProt P29376)
CAMK1D (human) = CAMK1D (human) (UniProt Q8IU85)
CSF1R (human) = CSF1R (human) (UniProt P07333)

YES1 (human), sequence (P07947 whole entry, looked up): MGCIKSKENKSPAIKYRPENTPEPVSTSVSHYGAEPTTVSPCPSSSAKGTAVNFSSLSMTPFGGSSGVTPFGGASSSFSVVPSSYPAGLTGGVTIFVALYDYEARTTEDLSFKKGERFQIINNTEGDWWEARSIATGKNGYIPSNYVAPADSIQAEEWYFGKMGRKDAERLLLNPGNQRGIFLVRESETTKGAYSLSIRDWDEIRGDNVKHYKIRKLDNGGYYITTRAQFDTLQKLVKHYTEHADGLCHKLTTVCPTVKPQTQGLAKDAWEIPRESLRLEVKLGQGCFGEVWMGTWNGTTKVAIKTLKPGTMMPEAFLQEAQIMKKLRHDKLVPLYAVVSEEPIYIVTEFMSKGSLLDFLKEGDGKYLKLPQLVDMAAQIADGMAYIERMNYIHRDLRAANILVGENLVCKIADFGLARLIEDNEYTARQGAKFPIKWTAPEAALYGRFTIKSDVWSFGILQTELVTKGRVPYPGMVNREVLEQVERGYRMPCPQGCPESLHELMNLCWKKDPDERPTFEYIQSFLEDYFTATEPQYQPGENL
NEK7 (human), sequence (Q8TDX7 whole entry, looked up): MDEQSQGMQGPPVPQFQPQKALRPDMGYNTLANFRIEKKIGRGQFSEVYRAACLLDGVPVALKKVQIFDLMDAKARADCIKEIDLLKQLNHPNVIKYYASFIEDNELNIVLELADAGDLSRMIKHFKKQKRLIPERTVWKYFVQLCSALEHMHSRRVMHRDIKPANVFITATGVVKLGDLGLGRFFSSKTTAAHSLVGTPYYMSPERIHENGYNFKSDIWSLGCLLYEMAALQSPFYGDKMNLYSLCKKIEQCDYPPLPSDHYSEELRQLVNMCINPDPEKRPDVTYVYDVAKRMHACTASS
ANKK1 (human), sequence (Q8NFD2 whole entry, looked up): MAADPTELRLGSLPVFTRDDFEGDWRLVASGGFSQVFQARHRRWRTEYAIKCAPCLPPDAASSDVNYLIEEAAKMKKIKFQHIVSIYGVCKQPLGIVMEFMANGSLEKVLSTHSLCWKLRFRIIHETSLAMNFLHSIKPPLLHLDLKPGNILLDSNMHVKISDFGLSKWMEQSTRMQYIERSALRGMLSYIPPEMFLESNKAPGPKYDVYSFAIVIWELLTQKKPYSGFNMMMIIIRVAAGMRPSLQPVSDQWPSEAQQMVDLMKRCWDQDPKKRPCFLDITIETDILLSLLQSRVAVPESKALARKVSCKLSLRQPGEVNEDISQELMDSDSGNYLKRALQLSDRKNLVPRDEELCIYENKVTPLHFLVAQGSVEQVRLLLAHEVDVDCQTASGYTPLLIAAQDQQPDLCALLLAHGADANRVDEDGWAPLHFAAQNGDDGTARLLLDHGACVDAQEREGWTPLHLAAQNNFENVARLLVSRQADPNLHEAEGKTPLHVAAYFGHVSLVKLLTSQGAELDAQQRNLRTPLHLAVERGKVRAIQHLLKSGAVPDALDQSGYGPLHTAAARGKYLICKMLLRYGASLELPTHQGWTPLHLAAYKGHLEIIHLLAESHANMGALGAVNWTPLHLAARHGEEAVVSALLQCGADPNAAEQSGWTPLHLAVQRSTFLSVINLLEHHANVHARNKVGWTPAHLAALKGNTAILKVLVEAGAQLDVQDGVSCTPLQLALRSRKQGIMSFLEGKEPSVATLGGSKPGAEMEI

Structure (SMILES): O=C1NC(=O)/C(=C/c2ccc3nccc(-c4ccncc4)c3c2)S1
- kinase still bound, per cent of control (ANKK1 (human)): 47%
- kinase still bound, per cent of control (TEK (human)): 98%
- kinase still bound, per cent of control (DYRK1B (human)): 1.2%
- kinase still bound, per cent of control (YES1 (human)): 84%
- kinase still bound, per cent of control (PRKD3 (human)): 74%
- kinase still bound, per cent of control (NEK7 (human)): 88%
- kinase still bound, per cent of control (MAPK8 (human)): 18%
- kinase still bound, per cent of control (BLK (human)): 77%
- kinase still bound, per cent of control (CDC2L2 (human)): 85%
- kinase still bound, per cent of control [1]: 100%
- kinase still bound, per cent of control (EIF2AK1 (human)): 82%
- kinase still bound, per cent of control (MAP2K2 (human)): 4.4%
- kinase still bound, per cent of control (RPS6KA5 KD2 (human)): 4.6%
- kinase still bound, per cent of control (FGFR4 (human)): 59%
- kinase still bound, per cent of control (HCK (human)): 75%
- kinase still bound, per cent of control (EPHB6 (human)): 39%
- kinase still bound, per cent of control (EPHB4 (human)): 74%
- kinase still bound, per cent of control (ERBB2 (human)): 66%
- kinase still bound, per cent of control (CLK4 (human)): 0.2%
- kinase still bound, per cent of control (LRRK2 (human)): 62%
- kinase still bound, per cent of control (AURKC (human)): 56%
- kinase still bound, per cent of control (TESK1 (human)): 84%
- kinase still bound, per cent of control (ULK2 (human)): 65%
- kinase still bound, per cent of control (CHEK2 (human)): 57%
- kinase still bound, per cent of control (MAPK10 (human)): 26%
- kinase still bound, per cent of control (MAPK11 (human)): 86%
- kinase still bound, per cent of control (NIM1 (human)): 71%
- kinase still bound, per cent of control (NTRK1 (human)): 78%
- kinase still bound, per cent of control (PIK3C2G (human)): 3.8%
- kinase still bound, per cent of control (PLK2 (human)): 29%
- kinase still bound, per cent of control (MAP4K2 (human)): 5.8%
- kinase still bound, per cent of control (STK10 (human)): 0.1%
- kinase still bound, per cent of control (AKT2 (human)): 100%
- kinase still bound, per cent of control (NUAK2 (human)): 36%
- kinase still bound, per cent of control (TIE1 (human)): 100%
- kinase still bound, per cent of control [2]: 0%
- kinase still bound, per cent of control (RIPK4 (human)): 56%
- kinase still bound, per cent of control (LTK (human)): 22%
- kinase still bound, per cent of control (CAMK1D (human)): 57%

Structure (SMILES): COCC(=O)NC/C=C/c1ccc2ncnc(Nc3ccc(Oc4ccc(C)nc4)c(C)c3)c2c1
- kinase still bound, per cent of control (ANKK1 (human)): 60%
- kinase still bound, per cent of control (TEK (human)): 100%
- kinase still bound, per cent of control (DYRK1B (human)): 92%
- kinase still bound, per cent of control (YES1 (human)): 65%
- kinase still bound, per cent of control (PRKD3 (human)): 83%
- kinase still bound, per cent of control (NEK7 (human)): 73%
- kinase still bound, per cent of control (MAPK8 (human)): 66%
- kinase still bound, per cent of control (BLK (human)): 62%
- kinase still bound, per cent of control (CDC2L2 (human)): 100%
- kinase still bound, per cent of control [1]: 88%
- kinase still bound, per cent of control (EIF2AK1 (human)): 100%
- kinase still bound, per cent of control (MAP2K2 (human)): 11%
- kinase still bound, per cent of control (RPS6KA5 KD2 (human)): 98%
- kinase still bound, per cent of control (FGFR4 (human)): 100%
- kinase still bound, per cent of control (EPHB6 (human)): 74%
- kinase still bound, per cent of control (EPHB4 (human)): 95%
- kinase still bound, per cent of control (ERBB2 (human)): 0%
- kinase still bound, per cent of control (CLK4 (human)): 100%
- kinase still bound, per cent of control (LRRK2 (human)): 100%
- kinase still bound, per cent of control (AURKC (human)): 67%
- kinase still bound, per cent of control (TESK1 (human)): 75%
- kinase still bound, per cent of control (ULK2 (human)): 100%
- kinase still bound, per cent of control (CHEK2 (human)): 55%
- kinase still bound, per cent of control (CSF1R (human)): 100%
- kinase still bound, per cent of control (MAPK10 (human)): 68%
- kinase still bound, per cent of control (MAPK11 (human)): 100%
- kinase still bound, per cent of control (NIM1 (human)): 87%
- kinase still bound, per cent of control (NTRK1 (human)): 89%
- kinase still bound, per cent of control (PIK3C2G (human)): 24%
- kinase still bound, per cent of control (PLK2 (human)): 100%
- kinase still bound, per cent of control (MAP4K2 (human)): 100%
- kinase still bound, per cent of control (STK10 (human)): 4.2%
- kinase still bound, per cent of control (AKT2 (human)): 100%
- kinase still bound, per cent of control (NUAK2 (human)): 100%
- kinase still bound, per cent of control (TIE1 (human)): 100%
- kinase still bound, per cent of control [2]: 100%
- kinase still bound, per cent of control (RIPK4 (human)): 100%
- kinase still bound, per cent of control (LTK (human)): 88%
- kinase still bound, per cent of control (CAMK1D (human)): 87%

Structure (SMILES): N#CCNC(=O)c1ccc(-c2ccnc(Nc3ccc(N4CCOCC4)cc3)n2)cc1
- kinase still bound, per cent of control (ANKK1 (human)): 100%
- kinase still bound, per cent of control (TEK (human)): 100%
- kinase still bound, per cent of control (DYRK1B (human)): 90%
- kinase still bound, per cent of control (YES1 (human)): 91%
- kinase still bound, per cent of control (PRKD3 (human)): 65%
- kinase still bound, per cent of control (NEK7 (human)): 2.2%
- kinase still bound, per cent of control (MAPK8 (human)): 1%
- kinase still bound, per cent of control (BLK (human)): 100%
- kinase still bound, per cent of control (CDC2L2 (human)): 58%
- kinase still bound, per cent of control [1]: 100%
- kinase still bound, per cent of control (EIF2AK1 (human)): 100%
- kinase still bound, per cent of control (MAP2K2 (human)): 100%
- kinase still bound, per cent of control (RPS6KA5 KD2 (human)): 9.3%
- kinase still bound, per cent of control (FGFR4 (human)): 91%
- kinase still bound, per cent of control (HCK (human)): 100%
- kinase still bound, per cent of control (EPHB6 (human)): 58%
- kinase still bound, per cent of control (EPHB4 (human)): 100%
- kinase still bound, per cent of control (ERBB2 (human)): 61%
- kinase still bound, per cent of control (CLK4 (human)): 15%
- kinase still bound, per cent of control (LRRK2 (human)): 48%
- kinase still bound, per cent of control (AURKC (human)): 18%
- kinase still bound, per cent of control (TESK1 (human)): 100%
- kinase still bound, per cent of control (ULK2 (human)): 60%
- kinase still bound, per cent of control (CHEK2 (human)): 100%
- kinase still bound, per cent of control (MAPK10 (human)): 2.4%
- kinase still bound, per cent of control (MAPK11 (human)): 100%
- kinase still bound, per cent of control (NIM1 (human)): 100%
- kinase still bound, per cent of control (PIK3C2G (human)): 100%
- kinase still bound, per cent of control (PLK2 (human)): 51%
- kinase still bound, per cent of control (MAP4K2 (human)): 40%
- kinase still bound, per cent of control (STK10 (human)): 100%
- kinase still bound, per cent of control (AKT2 (human)): 76%
- kinase still bound, per cent of control (NUAK2 (human)): 8.9%
- kinase still bound, per cent of control (TIE1 (human)): 87%
- kinase still bound, per cent of control [2]: 0.3%
- kinase still bound, per cent of control (RIPK4 (human)): 100%
- kinase still bound, per cent of control (LTK (human)): 100%
- kinase still bound, per cent of control (CAMK1D (human)): 40%

Structure (SMILES): NC(=O)Nc1cc(-c2cccc(F)c2)sc1C(=O)N[C@@H]1CCCNC1
- kinase still bound, per cent of control (ANKK1 (human)): 1.2%
- kinase still bound, per cent of control (TEK (human)): 17%
- kinase still bound, per cent of control (DYRK1B (human)): 1.8%
- kinase still bound, per cent of control (YES1 (human)): 0.2%
- kinase still bound, per cent of control (PRKD3 (human)): 2.2%
- kinase still bound, per cent of control (NEK7 (human)): 72%
- kinase still bound, per cent of control (MAPK8 (human)): 29%
- kinase still bound, per cent of control (BLK (human)): 0%
- kinase still bound, per cent of control (CDC2L2 (human)): 100%
- kinase still bound, per cent of control (EIF2AK1 (human)): 88%
- kinase still bound, per cent of control (MAP2K2 (human)): 0%
- kinase still bound, per cent of control (RPS6KA5 KD2 (human)): 9%
- kinase still bound, per cent of control (FGFR4 (human)): 13%
- kinase still bound, per cent of control (HCK (human)): 0%
- kinase still bound, per cent of control (EPHB6 (human)): 50%
- kinase still bound, per cent of control (EPHB4 (human)): 6.4%
- kinase still bound, per cent of control (ERBB2 (human)): 0%
- kinase still bound, per cent of control (CLK4 (human)): 2.4%
- kinase still bound, per cent of control (LRRK2 (human)): 4%
- kinase still bound, per cent of control (AURKC (human)): 0.7%
- kinase still bound, per cent of control (TESK1 (human)): 11%
- kinase still bound, per cent of control (ULK2 (human)): 0%
- kinase still bound, per cent of control (CHEK2 (human)): 3.8%
- kinase still bound, per cent of control (CSF1R (human)): 0%
- kinase still bound, per cent of control (MAPK10 (human)): 63%
- kinase still bound, per cent of control (MAPK11 (human)): 77%
- kinase still bound, per cent of control (NIM1 (human)): 13%
- kinase still bound, per cent of control (NTRK1 (human)): 0%
- kinase still bound, per cent of control (PIK3C2G (human)): 64%
- kinase still bound, per cent of control (PLK2 (human)): 40%
- kinase still bound, per cent of control (MAP4K2 (human)): 0%
- kinase still bound, per cent of control (STK10 (human)): 0%
- kinase still bound, per cent of control (AKT2 (human)): 60%
- kinase still bound, per cent of control (NUAK2 (human)): 2.2%
- kinase still bound, per cent of control (TIE1 (human)): 7.2%
- kinase still bound, per cent of control [2]: 0%
- kinase still bound, per cent of control (RIPK4 (human)): 0%
- kinase still bound, per cent of control (LTK (human)): 0.3%
- kinase still bound, per cent of control (CAMK1D (human)): 0.2%
